Laboratory results as given in patent US6407125B1, “Pharmacological agent and method of treatment” (Novactyl, Inc., priority 1995, dated 2002).

How the values were obtained:
plantar wart = experiment: Topical treatment of virus-induced plantar ulcer; type: in vivo, human
Procedure: A patient with recurrent plantar wart of about 2 cm in diameter was treated with topical picolinic acid. The patient, a pathologist who had difficulty walking because of the pain caused by the ulcer, had experimented with numerous medications for more than three months without any significant results prior to treatment with the picolinic acid. It is relevant to note that many plantar ulcers are transformed into malignant tumors.
The patient was treated with a solution of 10% picolinic acid in deionized water for one week. […] They then were treated with 10% picolinic acid in Aquaphor. The ointment was placed on the ulcer and on a patch. The patch was replaced every 24 hours.

cells = settings: cited from earlier work
[1] = Stability experiments as preservative in foods and on fresh fruits; type: physicochemical; settings: in foods and on the surface of fresh fruits
Excerpt: (§1) The chelating agents of the present invention can be used as preservatives in perishable items such as foods and pharmaceuticals and to prevent fungal growth on the surface of fresh fruits. Presently chemicals such as citrashine orthophenilphenol thiabendazole are used. […] Microbial and fungal growth is inhibited while the food components are unaffected. The preservative of the present invention has less likelihood of toxicity or untoward reactions if ingested that the present, complex chemical antifungals. The preferred concentration of picolinic acid or acceptable derivative for this use is approximately below 0.025% to be classified as a preservative. Of course, greater percentages, e.g. up to 99.9% also would be effective.

osteosarcoma = experiment: Oral treatment of osteosarcoma in canine; type: in vivo, dog; settings: 500 mg capsules twice daily, six days after initiating treatment
Procedure: The subject animal was a Bichon Frise dog that was diagnosed by a veterinarian with osteosarcoma. The osteosarcoma had invaded the dog's mandible and was encroaching on the lower portion of the orbit. The veterinarian began treatment with picolinic acid. The dog was administered 500 mg of picolinic acid, in capsules, twice daily. Six days after initiating treatment the veterinarian documented that the osteosarcoma had reduced approximately 40% in size. One week later the veterinarian observed that the tumor looked “necrotic”. The veterinarian incised the skin above the tumor and removed fluid from the center of the tumor.

[2] = Topical treatment of sunburn; type: in vivo; settings: 1%, 5% or 10% picolinic acid in absorption base; over 25 cases
Excerpt: (§2) Furthermore, it is believed that the response of cells to stress, such as exposure to UV radiation, chemicals, bacteria, parasites or fungi is associated with the induction of heat shock proteins.

LoVo cells = experiment: Growth of LoVo cells (total cell protein, cell number, DNA synthesis); type: cell-based, human; settings: 3 mM picolinic acid
Procedure: Cells were plated at 1.5×10^5 cells/60-mm dish; 48 hours later, the medium was removed, and new media with or without 3 mM picolinic acid was added. Total cell protein was determined at the indicated times; each point is the average of triplicate measurements from 2 cultures.
In initial experiments to examine the effects of fusaric acid on cell growth and viability, WI-38 and LoVo cells were incubated for 24 to 72 hours in medium with or without various doses of fusaric acid (0.1-1 mM). The growth of both WI-38 and LoVo cells was inhibited by 500 μM fusaric acid in a time and dose dependent manner, as shown below in Table 2.
After 30 hours of treatment with 500 μM fusaric acid, there was a prominent decrease in cell number. DNA synthesis was completely (100%) inhibited by 24 hours. When treated with 500 μM fusaric acid, the majority of the LoVo cells acquired a rounded morphology by 48 hours.
However, after 100 hours, an increase in cell number was noted after 25 additional hours.

human papilloma viruses = experiment: Topical treatment of common warts; type: in vivo; settings: 10% to 20% solution or 10% ointment in Aquaphor
Procedure: Five patients ranging in age from 11 years to 52 years and each having at least one common wart induced by human papilloma viruses was treated with a topical preparation of picolinic acid The topical preparation was either solution of 10% to 20% picolinic acid in deionized water or a topical ointment wherein 10% picolinic acid is incorporated into Aquaphor, i.e. 1 g of picolinic acid in 10 g of Aquaphor.

[3] = Topical treatment of inflammation associated with acne; type: in vivo; settings: 5% to 10% aqueous solution; more than 35 cases, adults and teenagers
Excerpt: as §2

[4] = in a 70 Kg subject; cited from earlier work
papilloma virus = experiment: Topical treatment of ulcerative papilloma virus lesion in a horse; type: in vivo; settings: for diameter of the lesion: initially 3 inch
Procedure: The lesion was progressive, with total loss of hair over the area. The diagnosis was viral disease, i.e. papilloma virus, complicated by fungal infection. The horse was treated with conventional local antibiotic and chemical therapies for about four months.
An aqueous solution of 10% picolinic acid in deionized water was applied every other day with a cotton swab over and around the lesion. The treatment continued for 45 days. The course of the regression of the viral lesion was as follows: […]

lymphoma = experiment: Oral treatment of lymphoma and impaired immunity; type: in vivo, human; settings: oral 2000 to 4000 mg per day
Procedure: The patient was a person with a history of lymphoma and impaired immunity. The patient had received standard therapy for lymphoma including the CHOP regimen. […] The patient contracted pneumonia three or four times per year and suffered from chronic otitis, chronic sinusitis and chronic Herpes Zoster infections.
The patient was treated with oral picolinic acid starting at 2000 mg per day and increased to 4000 mg per day divided equally in four doses. […] Their immunoglobulin levels rose to 3.3. Their chronic ear and sinus infections and pneumonia resolved concurrently. The Herpes Zoster disappeared.

[5] = Nasal spray treatment of upper respiratory infection; type: in vivo, human; settings: nasal spray 3 mM in physiologic saline, evening and bedtime, upon arising
Procedure: A college student presented with nasal congestion, slight fever, cough and sore throat. The subject began treatment with nasal spray containing 3 mM picolinic acid in physiologic saline vehicle. The subject used one or two sprays in each nostril after evening meal and before bedtime.

normal cells = settings: longer exposure; most normal cells; cited from earlier work
[6] = tested on: Microbial and fungal growth; experiment: Preservative effect on microbial and fungal growth in foods; settings: used as preservative
Excerpt: as §1

For `O=C(O)c1ccccn1` [picolinic acid, 2-Pyridine carboxylic acid], the plantar ulcer appearance (plantar wart; 10% solution in deionized water for one week) is given as “Central necrosis was noted”, the plantar ulcer outcome (plantar wart; then 10% in Aquaphor on ulcer and patch, additional three weeks) is given as “the plantar ulcer resolved” and the “incorporation of iron into the cells” value (cells) is given as “inhibits incorporation of iron into the cells”. The “removal of radioiron from the cells” value (cells) was “effectively removes radioiron from the cells”, the “stability as a preservative” value [1] was “highly stable” and the “reduction in size of osteosarcoma” value (osteosarcoma) was “approximately 40%”. The treatment of sunburn [2] was “successfully used”, the “growth of LoVo cells” value (LoVo cells) was “inhibited” and the wart outcome (human papilloma viruses; after approximately 4 to 6 weeks) was “the warts were gone”. For the same compound, the wart appearance (human papilloma viruses; after seven days, five patients) was “central necrosis of the wart occurred”, the “treatment of inflammation associated with acne” value [3] was “successfully treated” and the LD-50 [4] was 140 grams. For the same compound, the lesion appearance (papilloma virus; 10% aqueous solution every other day, after 10 days) was “central necrosis”, the “diameter of the lesion” value (papilloma virus; 10% aqueous solution, after 20 days) was “approximately 2 inches” and the “diameter of the lesion” value (papilloma virus; 10% aqueous solution, after 30 days) was “about 1 inch”. For the same compound, the lesion outcome (papilloma virus; 10% aqueous solution, at 45 days) was “resolved with some scar tissue”, the recurrence (papilloma virus; three additional months after treatment) was “without evidence of recurring disease” and the “chronic ear and sinus infections and pneumonia” value (lymphoma) was “resolved”. For the same compound, the lymphoma response (lymphoma; approximately two weeks) was “reduction in size of lymph nodes”, the immunoglobulin levels (lymphoma; before treatment 0.6 to 0.7) was 3.3 and the upper respiratory symptoms [5] was “no fever or sore throat symptoms”. The actinic lesion outcome (10% in Aquaphor daily, approximately three weeks, two patients) was “completely cured”, the “effects on normal skin” value (in vivo) was “without any effects on normal skin” and the “toxic effects in normal cells” value (normal cells) was “no toxic effects”. The “microbial and fungal growth” value [6] was “inhibited”.
